Series [1] has as its system Stop-POST5 / Stop-PRE6 complex. Description: High throughput translocation assay (proflavin fluorescence, plate reader). The following applies: FIG. 17B. It counts as biochemical. The source says: FIGS. 17A, 17B, 17C, and 17D are graphs showing data from the high throughput translocation assay. FIG. 17A is a graph showing a stable prf-fluorescence increase at different G418 concentrations [G418] due to eEF2-dependent conversion of a Stop-PRE6 complex to a Stop-POST6 complex, resulting from the increase in quantum yield of Trp-tRNA(prf). FIG. 17B is a graph showing fluorescence results in FIG. 17A as a function of [G418]. FIG. 17C is a graph showing the kinetics of Stop-PRE6 translocation, measured at 1 μM eEF2 and 2 μM G418. FIG. 17D is a graph showing the kinetics of Trp-PRE6 translocation to Trp-POST6 measured at 0.05 μM of eEF2 in the absence of G418.
Different proflavin-labeled aa-tRNAs, denoted aa-tRNA(prf)s, were used to monitor the elongation cycle changes by fluorescence change at 511 nm following excitation at 458 nm (Ng et al. PNAS, 118(2) e2020599118, 1-10 (2021)). Binding of Trp-TC(prf) to a Trp-POST5 complex in the presence of eEF2 lead to a biphasic increase, with the first, more rapid phase corresponding to formation of Trp-PRE6, followed by a slower, eEF2-dependent phase corresponding to conversion of Trp-PRE6 into Trp-POST6. The translocation step was monitored using a plate-reader assay for both G418-stimulated readthrough of Stop-POST5 (FIGS. 17A-17C) and cognate elongation of Trp-POST5 (FIG. 17D) by adjustment of [eEF2].

Series [2] has as its system Small RNAs within Stop-POST5 complex. The series can be described thus: AzAt photoincorporation into small RNAs (urea-PAGE, RNAse H fragments). It is filed as binding, shrimp (Artemia salina). As to the method:
FIG. 11 illustrates 8% Urea-PAGE resolution of small RNAs.
(§1) Photoaffinity labeling with [^3H]-AzAt. Samples in Buffer 4, typically 20 μL, were incubated in the dark (20 min for Stop-POST5 and 80S-IRES complexes, 2 min for release factors) with various concentrations of [^3H]-AzAt at 37° C., transferred to a UV-transparent cuvette which was covered with parafilm to prevent evaporation, and irradiated in a Rayonet photochemical reactor equipped with 300 nm UV lamps for 5 min at room temperature. This was followed by quenching with 2 mM DTT at 37° C. for 5 min under ambient light. The irradiation time gave complete photolysis of the phenyl azide moiety in AzAt. Photolysis was also complete at 5 min in the presence of 1 mM ataluren, ruling out internal filtering effects.
Stop-POST5 and 80S-IRES complexes. 1 μM solutions of either Stop-POST5 or 80S-S.IRES, determined by A260, were photolabeled by [^3H]-AzAt. The sample was then either directly purified by ultracentrifugation through a sucrose cushion to determine the photoincorporation stoichiometry in the complex, or subjected to phenol/chloroform extraction to determine the photoincorporation stoichiometry in the total RNA. To determine the photoincorporation background arising from incomplete removal of noncovalently bound photolyzed AzAt, AzAt was prephotolysed for 5 min before adding to the complex, followed by the 20 min incubation in dark at 37° C. and subsequent sucrose cushion purification or RNA extraction as described above.
(§2) RNaseH Fragment Assay. Total RNA was prepared from the ^3H-AzAt photoaffinity labeled ribosome by phenol-chloroform extraction. RNA: DNA duplexes were formed by incubating total RNA (0.2 μM) with an oligonucleotide pair (1 μM of each, sequences shown Table 1), flanking a specific RNA region, in 22.8 μL of water at 95° C. for 2 min, followed by annealing at 50° C. for 30 s and quenching on ice. Six units (1.2 μL) of RNase H (NEB) and 6 μl of 5×RNase H Reaction Buffer were next added to the RNA: DNA duplex and incubated at 37° C. for 1 hour, followed by phenol-chloroform extraction of RNA. The digested RNA was separated on 12% TBE-Urea PAGE gel, and the target band along with the adjacent upper and bottom gels were sliced by a 2 mm gel cutter. The gel slices were crushed and the ^3H labeled rRNA fragment was extracted in water by vigorously shaking at 70° C. for 30 min, or by overnight extraction in elution buffer (0.3M sodium acetate, 0.25% SDS, 1 mM EDTA). The slurry was removed by centrifugation and the eluted ^3H labeled rRNA in the supernatant was quantified. The stoichiometry of AzAt photoincorporation was calculated based on a gel recovery yield of 20±2%, determined using an authentic sample of [^3H]-Gln-tRNA^Gln.
Small RNAs. AzAt photoincorporation into the 4 small RNAs (CrPV-IRES, 5.8S rRNA, 5S rRNA, and tRNA) contained within POST5 was examined by one-dimensional (1D) urea-PAGE analysis, by RNA-Seq, and by RNAse H fragment assay (FIG. 11).

Series [3] in a line: Solubility in aqueous medium. It is filed as physicochemical.
Series [4] deals with rRNA fragments I-IV of Stop-POST5. The series can be described thus: RNaseH fragment assay, Stop-POST5. It counts as binding, shrimp (Artemia salina). As to the method:
as §2
Testing the functional pertinence of AzAt photolabeling of 18S A1195, 28S-A3093, 28S-A2672, and 28S-2669. An RNAse H fragment assay was employed to determine whether the potential functionally significant sites identified by LASER-seq correspond to ataluren binding sites relevant for termination activity. In this assay, oligonucleotide hybridization, RNase H digestion and polyacrylamide gel electrophoresis (PAGE) were used to determine the stoichiometry of [^3H]-AzAt photoincorporation into the three rRNA fragments that together include the four nucleotides of interest: Fragment I, 18S-A1195; Fragment II, 26S-A3093; Fragment III, 26S-A2669 and 26S-A2672 (Table 5). The separate addition of four potential competitors of AzAt binding (eRF1 alone, the stably bound eRF1.eRF3.GDPNP complex, ataluren, and the ataluren-like TRID GJ072) was used to test how these affected such photoincorporation. These experiments, the results of which are summarized in Table 5, were performed at two different AzAt concentrations. eRF1 and eRF1.eRF3.GDPNP effects were measured using 300 μM AzAt, paralleling the LASER-Seq PAL experiments.

The target in series [5] is T1, eRF1.eRF3.GDPNP ternary complex (Saccharomyces cerevisiae, UniProt P12385).
T1 construct: made in house; host or cells: E. coli BL21(DE3) CodonPlus
T1 sequence (P05453 166-685): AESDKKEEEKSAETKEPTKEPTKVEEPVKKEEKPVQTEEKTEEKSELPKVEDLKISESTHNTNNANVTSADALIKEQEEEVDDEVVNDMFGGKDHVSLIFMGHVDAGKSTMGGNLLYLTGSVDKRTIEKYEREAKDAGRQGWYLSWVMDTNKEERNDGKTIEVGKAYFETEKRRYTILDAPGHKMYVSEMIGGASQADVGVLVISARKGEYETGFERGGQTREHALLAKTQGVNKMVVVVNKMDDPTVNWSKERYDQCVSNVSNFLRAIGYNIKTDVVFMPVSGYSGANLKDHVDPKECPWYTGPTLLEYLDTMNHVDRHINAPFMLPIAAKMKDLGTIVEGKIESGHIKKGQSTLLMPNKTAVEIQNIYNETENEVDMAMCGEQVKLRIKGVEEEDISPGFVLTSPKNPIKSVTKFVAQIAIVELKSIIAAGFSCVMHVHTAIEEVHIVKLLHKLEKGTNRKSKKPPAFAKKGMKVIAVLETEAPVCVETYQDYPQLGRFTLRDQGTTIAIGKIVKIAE
T1 sequence (P12385 whole entry): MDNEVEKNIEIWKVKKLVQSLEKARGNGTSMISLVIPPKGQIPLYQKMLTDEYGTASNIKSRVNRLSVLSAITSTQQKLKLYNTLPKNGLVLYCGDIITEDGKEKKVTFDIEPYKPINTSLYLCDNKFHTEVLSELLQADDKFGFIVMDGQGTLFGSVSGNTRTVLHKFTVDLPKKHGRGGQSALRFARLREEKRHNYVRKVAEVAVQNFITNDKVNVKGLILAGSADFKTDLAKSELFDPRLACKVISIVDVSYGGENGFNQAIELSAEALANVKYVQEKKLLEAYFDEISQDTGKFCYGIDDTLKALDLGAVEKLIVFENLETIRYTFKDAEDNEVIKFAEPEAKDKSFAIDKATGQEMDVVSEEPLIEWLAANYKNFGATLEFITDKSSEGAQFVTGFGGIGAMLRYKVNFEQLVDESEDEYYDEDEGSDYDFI
Description: [3H]-AzAt photoaffinity labeling of eRF1 within ternary complex. It is filed as binding. The following applies: compared with isolated eRF1, FIG. 2E. On the procedure:
as §1
(§3) Photoaffinity labeling of release factors. Solutions containing eRF1 (10 μM), eRF3 (20 μM) and 1 mM GMPPMP were pre-incubated at 37° C. for 2 min to form the ternary complex prior to photolabeling with [^3H]-AzAt. After quenching, reaction mixtures were loaded onto a 4-15% mini protean SDS-PAGE gel for protein separation and isolation. Gel slices containing eRF1 or eRF3, as shown by Coomassie Blue R250 staining, were crushed and the radioactivity was extracted in extraction buffer (50 mM Tris-HCl, 150 mM NaCl, and 0.1 mM EDTA; pH 7.5) by vigorously shaking at 70° C. for 30 min. The data fitting was performed using the software Prism. Labeling results of eRF1 alone and within the eRF1.eRF3.GDPNP complex were fit with a one-site binding model and a two-site binding model, respectively.

The next series addresses T2, eRF1 (Saccharomyces cerevisiae, UniProt P12385).
T2 construct: made in house; host or cells: E. coli BL21(DE3) CodonPlus
Description: [3H]-AzAt photoaffinity labeling of isolated eRF1. As to conditions: FIG. 2E. It is filed as binding. As to the method:
as §1, §3

[6] abbreviates: PAL, 30 μM AzAt, alone or plus competing ligand named as label.
Setting [7] is: Stop-POST5, PAL, 30 μM AzAt, alone or plus Ataluren 500 μM / GJ072 150 μM named as label.

SMILES strings stand for the structures.

T2 sequence (P12385 whole entry): as above

In the case of `CN[C@@H]1[C@@H](O)[C@@H](O[C@@H]2[C@@H](O)[C@H](O[C@H]3O[C@H]([C@@H](C)O)[C@@H](O)[C@H](O)[C@H]3N)[C@@H](N)C[C@H]2N)OC[C@]1(C)O` [G418], the “EC50 value, G418-stimulated readthrough translocation” value in series [1] was “fully consistent with previous determination”.

Regarding `COc1cccc(-n2c(SCC(=O)Nc3ccc(F)cc3)nnc2-c2ccccn2)c1` [GJ072], in series [2] (PAL, 30 μM AzAt, alone (AzAt) or plus competing ligand named as label (Ataluren 500 μM, GJ072 150 μM)), the “Photoincorporation yields into CrPV-IRES nts1-155” value is reported as 0.51 ± 0.03 mole %. Moreover, in series [2] (setting [6]), the “Photoincorporation yields into 5S rRNA” value turned out to be 0.15 ± 0.01 mole %, the “Photoincorporation yields into 5.8S rRNA” value stood at 0.19 ± 0.07 mole %, the “Photoincorporation yields into CrPV-IRES All” value is 0.59 ± 0.14 mole % and the “Photoincorporation yields into CrPV-IRES nts156-221” value is 0.22 ± 0.05 mole %. For the same molecule, in series [2] (setting [6]), the “Photoincorporation yields into CrPV-IRES nts222-278” value amounted to 0.09 ± 0.05 mole % and the “Photoincorporation yields into tRNA^Gln” value is listed as 0.25 ± 0.03 mole %. Moreover, the “effect on AzAt labeling of CrPV-IRES fragments 1-155 and 156-221” value in series [2] (RNAse H fragment assay) is given as “no clearly significant changes”. Also, the “effect on AzAt labeling of small RNAs” value in series [2] (none clearly significant) was “generally small reductions”. Besides, the “solubility in aqueous medium” value in series [3] is “limited solubility”. For the same molecule, the “effect on AzAt photoincorporation into Fragment IV (26S A1437/A1438)” value in series [4] is “neither ataluren nor GJ072 reduce labeling at all”. Besides, in series [4] (Stop-POST5), the “effect on AzAt photoincorporation into Fragment I (18S-A1195)” value is given as “strongly inhibited”, the “effect on AzAt photoincorporation into Fragment II (A3093)” value is recorded as “stimulated” and the “effect on AzAt photoincorporation into Fragment III (A2669/A2672)” value is recorded as “only weakly inhibited”. Further, in series [4] (setting [7]), the “Photoincorporation yields into 18S A1195/ I: 18S 1151-1206” value was found to be 0.10 ± 0.01 mole %, the “Photoincorporation yields into 26S-A2669:A2672/ III: 26S 2638-2702” value was found to be 0.07 ± 0.01 mole %, the “Photoincorporation yields into 26S-A3093/ II: 26S 3069-3113” value turned out to be 0.07 ± 0.01 mole % and the “Photoincorporation yields into RNAse H Fragment IV: 26S 1413-1476” value is 0.019 ± 0.004%. Further, in series [5], the “inhibition of AzAt photoincorporation into eRF1 within the ternary complex” value is “less marked”. Besides, the “effect on AzAt photoincorporation into isolated eRF1” value at eRF1 is “substantially inhibited”.

Values taken from US20230235374A1, “High Throughput Assays for Detecting Translation Readthrough Inducers” (The Trustees of the University of Pennsylvania, priority 2021, published 2023).
